Data published in PubChem BioAssay AID330 (DTP/NCI, 2004).
Inconclusive results and toxic doses are left out. Rule for the calls: active = survival T/C of 150% or more; inactive = T/C below 125% in these data.

Tested on: P388 leukemia ip, CD2F1 mice, survival T/C
Test: NCI In Vivo Anticancer Drug Screen. Data for tumor model P388 Leukemia (intraperitoneal) in CD2F1 (CDF1) mice
Settings: endpoint: median survival time, higher = longer survival
How it was run: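 Mice carrying the transplanted tumor received test compound or vehicle. Survival was recorded in each group, and the value is the treated-group measurement divided by that of the vehicle-treated control group.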

Measured: T/C

COC1/C=C/OC2(C)Oc3c(C)c(O)c4c(c3C2=O)C(N)=C(NC2CC2)C(=NC(=O)/C(C)=C\C=C\C(C)C(O)C(C)C(O)C(C)C(OC(C)=O)C1C)C4=O (stereo not given)
inactive: dose: 25.0 mg/kg/injection, schedule: Q01DX009 (ip), vehicle: Klucel (hydroxypropylcellulose) (HPC) 102 % of control | dose: 50.0 mg/kg/injection, schedule: Q01DX009 (ip), vehicle: Klucel (hydroxypropylcellulose) (HPC) 103 % of control | dose: 100.0 mg/kg/injection, schedule: Q01DX009 (ip), vehicle: Klucel (hydroxypropylcellulose) (HPC) 119 % of control

Cc1c2c(C(N)=O)nccc2c(C)c2c1c1ccccc1n2Cc1ccccc1
inactive: dose: 1.56 mg/kg/injection, schedule: Q04DX003 (ip), vehicle: distilled water + Tween-80 89 % of control | dose: 3.13 mg/kg/injection, schedule: Q04DX003 (ip), vehicle: distilled water + Tween-80 89 % of control | dose: 12.5 mg/kg/injection, schedule: Q04DX003 (ip), vehicle: distilled water + Tween-80 86 % of control | dose: 25.0 mg/kg/injection, schedule: Q04DX003 (ip), vehicle: distilled water + Tween-80 87 % of control | dose: 50.0 mg/kg/injection, schedule: Q04DX003 (ip), vehicle: distilled water + Tween-80 100 % of control | dose: 100.0 mg/kg/injection, schedule: Q04DX003 (ip), vehicle: distilled water + Tween-80 95 % of control | dose: 200.0 mg/kg/injection, schedule: Q04DX003 (ip), vehicle: distilled water + Tween-80 101 % of control
